In patent US12540165B2, “HSP fusion protein with anti-chemorepellant agent for treatment of cancer” (The General Hospital Corporation, priority 2016, dated 2026):
Where two headings read alike, the source gives them in different places.

Columns and labels:
[1] = tested on: AE17 mouse mesothelioma cell line; assay: AE17 intraperitoneal malignant mesothelioma model: tumor weight and survival (Example 5); format: in vivo, C57BL/6 mice; conditions: compared to saline
[2] = tested on: 40L mouse mesothelioma cell line; assay: Immune profiling by flow cytometry of spleens and tumors of 40L tumor-bearing mice; format: in vivo, C57BL/6 mice
[3] = tested on: AE17 mouse mesothelioma cell line; assay: Ex vivo restimulation with recombinant mesothelin, intracellular IFN-γ in CD8+ T cells, AE17 mice; design: species or system C57BL/6 mice; conditions: compared to saline
[4] = tested on: 40L mouse mesothelioma cell line; assay: Ex vivo restimulation with recombinant mesothelin, intracellular IFN-γ in CD8+ T cells, 40L mice; design: species or system C57BL/6 mice; conditions: splenic CD8+ T cells, compared to saline
[5] = tested on: Luc-AE17 mesothelioma cancer cells; assay: Luc-AE17 mesothelioma model, survival (Example 4); format: in vivo, C57BL/6 mice; conditions: compared to saline, VIC-008 20 μg, AMD3100 1 μg/g body weight, once a week for four weeks
[6] = tested on: 40L mouse mesothelioma cell line; assay: 40L intraperitoneal malignant mesothelioma model: tumor weight and survival (Example 5); format: in vivo, C57BL/6 mice; conditions: compared to saline
Foxp3^+ Treg cells = conditions: AMD3100 5 μg/ml, 24 hours
[7] = tested on: AE17 mouse mesothelioma cell line; assay: Immune profiling by flow cytometry of spleens, lymph nodes and tumors of AE17 tumor-bearing mice; format: in vivo, C57BL/6 mice
[8] = tested on: Luc-40L mesothelioma cancer cells; assay: Luc-40L mesothelioma model, survival (Example 4); format: in vivo, C57BL/6 mice; conditions: compared to saline, VIC-008 20 μg, AMD3100 1 μg/g body weight, once a week for four weeks
[9] = spleens, 40L, compared to saline
[10] = tumors, 40L, compared to saline
[11] = lymph nodes, AE17, compared to saline
[12] = spleens, AE17, compared to saline
[13] = tumors, AE17, compared to saline

In the case of `c1cc(CN2CCCNCCNCCCNCC2)ccc1CN1CCCNCCNCCCNCC1` [AMD3100, 1,1′-[1,4-phenylenebis(methylene)]bis[1,4,8,11-tetraazacyclotetradecane]], the animal survival [1] is reported as “only modest benefit to survival”, the “proportions of Treg cells” value ([2]; spleens of 40L tumor-bearing mice) is reported as “did not alter” and the “proportion of CD8+ T cells in total live cells” value (shortened to “proportion of CD8+ T cells”) [2, 9] is reported as “did not increase”. The “proportion of PD-1-expressing CD8+ T cells” value [2, 9] was “significantly fewer”, the “IL-2+ CD40L+ cells in the Foxp3+ CD25− Treg population” value ([2]; tumors of 40L mice) was “significantly more cells” and the “ratio of CD25− cells to CD25+ cells within the Foxp3+ population” value ([2]; tumors of 40L mice) was “significantly increased”. The “proportion of CD8+ T cells” value [2, 10] was “did not increase”, the “proportion of PD-1-expressing CD8+ T cells” value [2, 10] was “significantly fewer” and the “proportions of Treg” value [2, 10] was “significantly decreased”. The “ratio of CD8+ T cells to Treg” value [2, 10] was “increased”, the “mesothelin-specific IFN-γ expression in CD8+ T cells” value (from here on “mesothelin-specific IFN-γ expression”) ([3]; lymph node CD8+ T cells) was “did not enhance” and the “mesothelin-specific IFN-γ expression” value ([3]; splenic CD8+ T cells) was “did not enhance”. The “mesothelin-specific IFN-γ expression” value [4] was “did not enhance”, the “survival of tumor-bearing mice” value [5] was “slight effect on survival” and the animal survival [6] was “only modest benefit to survival”. For the same compound, the “ratio of the proportion of CD25− cells to CD25+ cells in the Foxp3+ CD4+ population” value (Foxp3^+ Treg cells; no anti-CD3/CD28 stimulation) was “did not change”, the “conversion of Foxp3+ CD25− Treg into IL-2+ CD40L+ cells” value (Foxp3^+ Treg cells; with anti-CD3/CD28 stimulation) was “converted more” and the “ratio of the proportion of CD25− cells to CD25+ cells in the Foxp3+ CD4+ population” value (Foxp3^+ Treg cells; with anti-CD3/CD28 stimulation) was “significantly increased”. The “IL-2+ CD40L+ cells in the Foxp3+ CD25− Treg population” value ([7]; lymph nodes of AE17 mice) was “significantly more cells”, the “cell ratio of CD8+ T cells to Treg cells” value [7, 11] was “significantly increased” and the “proportion of CD8+ T cells” value [7, 11] was “did not increase”. For the same compound, the “proportion of PD-1-expressing CD8+ T cells” value [7, 11] was “significantly fewer”, the “ratio of CD25− cells to CD25+ cells within the Foxp3+ population” value ([7]; lymph nodes, AE17 model) was “significantly increased” and the “Treg in the lymph nodes” value ([7]; lymph nodes, AE17 tumor-bearing mice) was “generally reduced”. For the same compound, the “proportion of CD8+ T cells” value [7, 12] was “did not increase”, the “proportion of PD-1-expressing CD8+ T cells” value [7, 12] was “significantly fewer” and the “proportion of CD8+ T cells” value [7, 13] was “did not increase”. The “proportion of PD-1-expressing CD8+ T cells” value [7, 13] was “significantly fewer”, the “proportions of Treg” value [7, 13] was “significantly decreased” and the “ratio of CD8+ T cells to Treg” value [7, 13] was “increased”. For the same compound, the “survival of tumor-bearing mice” value [8] was “slight effect on survival”.
